Results from PMC5218480 (PLoS ONE, 2017).

Test system: MV-4-11 cells
Assay: Gene expression microarray analysis (Affymetrix PrimeView) and GSEA
Type: cell-based, human
Set-up: RFU PODN (11730768_x_at) / Fold change /veh PODN (11730768_x_at) / RFU LINC00158 (11744669_a_at) / Fold change /veh LINC00158 (11744669_a_at) / RFU DUSP10 (11751237_a_at) / Fold change /veh DUSP10 (11751237_a_at) / RFU ID3 (11757404_x_at) / Fold change /veh ID3 (11757404_x_at) / RFU PLEKHG5 (11737974_s_at) / Fold change /veh PLEKHG5 (11737974_s_at) / RFU LRRC4B (11730491_at) / Fold change /veh LRRC4B (11730491_at) / RFU GIMAP4 (11747438_a_at) / Fold change /veh GIMAP4 (11747438_a_at) / RFU KRT8 (11758183_x_at) / Fold change /veh KRT8 (11758183_x_at) / RFU CNN1 (11734310_a_at) / Fold change /veh CNN1 (11734310_a_at) / RFU VPS37D (11726825_at) / Fold change /veh VPS37D (11726825_at) / RFU C10orf10 (11716522_x_at) / Fold change /veh C10orf10 (11716522_x_at) / RFU KIR2DL2 /// KIR2DL4 /// KIR2DL5A /// KIR2DL5B /// KIR2DS1 /// KIR2DS2 /// KIR2DS3 /// KIR2DS4 /// KIR3DL3 /// KIR3DL3 /// KIR3DS1 (11738374_at) / Fold change /veh KIR2DL2 /// KIR2DL4 /// KIR2DL5A /// KIR2DL5B /// KIR2DS1 /// KIR2DS2 /// KIR2DS3 /// KIR2DS4 /// KIR3DL3 /// KIR3DL3 /// KIR3DS1 (11738374_at) / RFU C1QL1 (11718748_at) / Fold change /veh C1QL1 (11718748_at) / RFU TMPRSS4 (11747572_a_at) / Fold change /veh TMPRSS4 (11747572_a_at) / RFU HAMP (11756126_x_at) / Fold change /veh HAMP (11756126_x_at) / RFU RNFT2 (11725882_a_at) / Fold change /veh RNFT2 (11725882_a_at) / RFU NR4A2 (11747474_a_at) / Fold change /veh NR4A2 (11747474_a_at) / RFU ABCC12 (11746883_a_at) / Fold change /veh ABCC12 (11746883_a_at) / RFU TMEM136 (11760407_x_at) / Fold change /veh TMEM136 (11760407_x_at) / RFU CLDN22 /// WWC2 (11732394_at) / Fold change /veh CLDN22 /// WWC2 (11732394_at) / RFU HLA-DPB1 (11760878_x_at) / Fold change /veh HLA-DPB1 (11760878_x_at) / RFU SPINT1 (11716480_a_at) / Fold change /veh SPINT1 (11716480_a_at) / RFU GAP43 (11754022_s_at) / Fold change /veh GAP43 (11754022_s_at) / RFU A4GNT (11735810_at) / Fold change /veh A4GNT (11735810_at) / RFU PRB3 (11715151_x_at) / Fold change /veh PRB3 (11715151_x_at) / RFU TUBB4B (11761932_at) / Fold change /veh TUBB4B (11761932_at) / RFU CAPN14 (11732068_a_at) / Fold change /veh CAPN14 (11732068_a_at) / RFU TMCC2 (11721928_a_at) / Fold change /veh TMCC2 (11721928_a_at) / RFU IRGQ (11745062_a_at) / Fold change /veh IRGQ (11745062_a_at) / RFU FAM174B (11720279_a_at) / Fold change /veh FAM174B (11720279_a_at) / RFU TMPRSS4 (11748680_a_at) / Fold change /veh TMPRSS4 (11748680_a_at) / RFU FAM212B (11763350_a_at) / Fold change /veh FAM212B (11763350_a_at) / RFU PLEKHG5 (11743358_a_at) / Fold change /veh PLEKHG5 (11743358_a_at) / RFU ZSCAN30 (11745921_a_at) / Fold change /veh ZSCAN30 (11745921_a_at) / RFU CMKLR1 (11741424_a_at) / Fold change /veh CMKLR1 (11741424_a_at) / RFU LOC101060620 /// MAPK8IP1 (11723275_at) / Fold change /veh LOC101060620 /// MAPK8IP1 (11723275_at) / RFU SPTSSB (11747773_x_at) / Fold change /veh SPTSSB (11747773_x_at) / RFU PRSS12 (11739890_at) / Fold change /veh PRSS12 (11739890_at) / RFU BIN1 (11741810_x_at) / Fold change /veh BIN1 (11741810_x_at) / RFU WNT11 (11732464_a_at) / Fold change /veh WNT11 (11732464_a_at) / RFU C10orf10 (11716521_a_at) / Fold change /veh C10orf10 (11716521_a_at) / RFU C5orf56 (11738089_at) / Fold change /veh C5orf56 (11738089_at) / RFU CYB561 (11721691_x_at) / Fold change /veh CYB561 (11721691_x_at) / RFU ANKRD19P (11752326_a_at) / Fold change /veh ANKRD19P (11752326_a_at) / RFU OR2T12 /// OR2T33 /// OR2T8 (11738714_s_at) / Fold change /veh OR2T12 /// OR2T33 /// OR2T8 (11738714_s_at) / RFU VCAN (11748164_a_at) / Fold change /veh VCAN (11748164_a_at) / RFU JSRP1 (11732532_at) / Fold change /veh JSRP1 (11732532_at) / RFU KRTAP10-11 (11738290_x_at) / Fold change /veh KRTAP10-11 (11738290_x_at) / RFU MYO3A (11730013_a_at) / Fold change /veh MYO3A (11730013_a_at) / RFU EBF3 (11725865_a_at) / Fold change /veh EBF3 (11725865_a_at) / RFU CAMK2N1 (11719241_x_at) / Fold change /veh CAMK2N1 (11719241_x_at) / RFU C5orf56 (11738088_a_at) / Fold change /veh C5orf56 (11738088_a_at) / RFU OLFML3 (11715873_a_at) / Fold change /veh OLFML3 (11715873_a_at) / RFU LOC100653217 /// NTM (11731650_a_at) / Fold change /veh LOC100653217 /// NTM (11731650_a_at) / RFU MAPK11 (11762145_a_at) / Fold change /veh MAPK11 (11762145_a_at) / RFU FIZ1 (11724087_x_at) / Fold change /veh FIZ1 (11724087_x_at) / RFU OASL (11726364_x_at) / Fold change /veh OASL (11726364_x_at) / RFU SOX15 (11748057_x_at) / Fold change /veh SOX15 (11748057_x_at) / RFU CD79A (11719716_a_at) / Fold change /veh CD79A (11719716_a_at) / RFU HIST1H1D (11736915_at) / Fold change /veh HIST1H1D (11736915_at) / RFU CASKIN2 (11723855_a_at) / Fold change /veh CASKIN2 (11723855_a_at) / RFU LOC730098 (11760151_x_at) / Fold change /veh LOC730098 (11760151_x_at) / RFU OR4N2 (11742367_at) / Fold change /veh OR4N2 (11742367_at) / RFU PRRT2 (11749266_a_at) / Fold change /veh PRRT2 (11749266_a_at) / RFU SNX32 (11753110_a_at) / Fold change /veh SNX32 (11753110_a_at) / RFU CDHR5 (11726645_a_at) / Fold change /veh CDHR5 (11726645_a_at) / RFU RCAN1 (11760418_a_at) / Fold change /veh RCAN1 (11760418_a_at) / RFU FAM167A (11723789_a_at) / Fold change /veh FAM167A (11723789_a_at) / RFU FAM26E (11764081_at) / Fold change /veh FAM26E (11764081_at) / RFU ISYNA1 (11749810_s_at) / Fold change /veh ISYNA1 (11749810_s_at) / RFU ACY1 (11761880_at) / Fold change /veh ACY1 (11761880_at) / RFU 11764098_at / Fold change /veh 11764098_at / RFU SAMD14 (11745864_x_at) / Fold change /veh SAMD14 (11745864_x_at) / RFU NPB (11741838_a_at) / Fold change /veh NPB (11741838_a_at) / RFU TMPRSS6 (11731388_a_at) / Fold change /veh TMPRSS6 (11731388_a_at) / RFU KRTAP10-2 (11738614_at) / Fold change /veh KRTAP10-2 (11738614_at) / RFU ARHGAP8 /// PRR5-ARHGAP8 (11727945_x_at) / Fold change /veh ARHGAP8 /// PRR5-ARHGAP8 (11727945_x_at) / RFU KRTAP5-7 /// NADSYN1 (11734609_at) / Fold change /veh KRTAP5-7 /// NADSYN1 (11734609_at) / RFU RASL12 (11751679_a_at) / Fold change /veh RASL12 (11751679_a_at) / RFU CDKN2B (11736163_a_at) / Fold change /veh CDKN2B (11736163_a_at) / RFU PRF1 (11729649_at) / Fold change /veh PRF1 (11729649_at) / RFU, ZNF638 /// ZNF638-IT1 / Fold change vs veh, ZNF638 /// ZNF638-IT1 / RFU, PANK3 / Fold change vs veh, PANK3 / RFU, SH3YL1 / Fold change vs veh, SH3YL1 / RFU, ZEB2 / Fold change vs veh, ZEB2 / RFU, NRIP1 / Fold change vs veh, NRIP1 / RFU, PTTG1IP / Fold change vs veh, PTTG1IP / RFU, CAPN2 / Fold change vs veh, CAPN2 / RFU, MED14 / Fold change vs veh, MED14 / RFU, SNORA58 / Fold change vs veh, SNORA58 / RFU, C1orf63 / Fold change vs veh, C1orf63 / RFU, LRRFIP1 / Fold change vs veh, LRRFIP1 / RFU, NDUFAF7 / Fold change vs veh, NDUFAF7 / RFU, SLC12A2 / Fold change vs veh, SLC12A2 / RFU, IBTK / Fold change vs veh, IBTK / RFU, ESF1 / Fold change vs veh, ESF1 / Fold change vs veh, TMEM50B / RFU, TAOK1 / Fold change vs veh, TAOK1 / RFU, ACBD3 / Fold change vs veh, ACBD3 / RFU, TMA16 / Fold change vs veh, TMA16 / RFU, RWDD3 / Fold change vs veh, RWDD3 / RFU, BCAT1 / Fold change vs veh, BCAT1 / RFU, EDEM3 / Fold change vs veh, EDEM3 / RFU, TMEM33 / Fold change vs veh, TMEM33 / RFU, WDR75 / Fold change vs veh, WDR75 / RFU, AHCTF1 / Fold change vs veh, AHCTF1 / RFU, TFRC / Fold change vs veh, TFRC / RFU, ZDHHC17 / Fold change vs veh, ZDHHC17 / RFU, NOM1 / Fold change vs veh, NOM1 / RFU, ARL8B / Fold change vs veh, ARL8B / RFU, ZBTB11 / Fold change vs veh, ZBTB11 / RFU, TAMM41 / Fold change vs veh, TAMM41 / RFU, KIAA1704 /// LOC100996395 / Fold change vs veh, KIAA1704 /// LOC100996395 / RFU, ING1 / Fold change vs veh, ING1 / RFU, TRMT61B / Fold change vs veh, TRMT61B / RFU, FUBP3 / Fold change vs veh, FUBP3 / RFU, TP53 / Fold change vs veh, TP53 / RFU, TNKS2 / Fold change vs veh, TNKS2 / RFU, ZFP14 / Fold change vs veh, ZFP14 / RFU, ACTR2 / Fold change vs veh, ACTR2 / RFU, PPP3R1 / Fold change vs veh, PPP3R1 / RFU, PIK3R1 / Fold change vs veh, PIK3R1 / RFU, HNRNPA1 / Fold change vs veh, HNRNPA1 / RFU, RNF170 / Fold change vs veh, RNF170 / RFU, ZNF28 / Fold change vs veh, ZNF28 / RFU, RNGTT / Fold change vs veh, RNGTT / RFU, OGT / Fold change vs veh, OGT / RFU, BRD1 / Fold change vs veh, BRD1 / RFU, MARS / Fold change vs veh, MARS / RFU, ZNF655 / Fold change vs veh, ZNF655 / RFU, FAHD1 / Fold change vs veh, FAHD1 / RFU, BDP1 / Fold change vs veh, BDP1 / RFU, LRRCC1 / Fold change vs veh, LRRCC1 / RFU, ARID1A / Fold change vs veh, ARID1A / RFU, ZNF146 / Fold change vs veh, ZNF146 / RFU, ZNF330 / Fold change vs veh, ZNF330 / RFU, GPN3 / Fold change vs veh, GPN3 / RFU, C9orf123 / Fold change vs veh, C9orf123 / RFU, N4BP2L2 / Fold change vs veh, N4BP2L2 / RFU, ARFIP1 / Fold change vs veh, ARFIP1 / RFU, FAM179B / Fold change vs veh, FAM179B / RFU, BCL10 / Fold change vs veh, BCL10 / RFU, UHRF1BP1L / Fold change vs veh, UHRF1BP1L / RFU, BET1 / Fold change vs veh, BET1 / RFU, CNOT2 / Fold change vs veh, CNOT2 / RFU, ZNF268 / Fold change vs veh, ZNF268 / Fold change vs veh, ZNF507 / RFU, DGCR2 / Fold change vs veh, DGCR2 / RFU, WDSUB1 / Fold change vs veh, WDSUB1 / Fold change vs veh, HSP90B1 /// MIR3652 / RFU, ADSS / Fold change vs veh, ADSS / RFU, GK / Fold change vs veh, GK / RFU, ZNF148 / Fold change vs veh, ZNF148 / RFU, TAF9 / Fold change vs veh, TAF9 / RFU, SLC1A5 / Fold change vs veh, SLC1A5 / RFU, SLMO2 / Fold change vs veh, SLMO2 / RFU, ABCC4 / Fold change vs veh, ABCC4 / RFU, LOC101060439 /// RAP1B / Fold change vs veh, LOC101060439 /// RAP1B / RFU, RFX7 / Fold change vs veh, RFX7 / RFU, GTPBP10 / Fold change vs veh, GTPBP10 / RFU, CNEP1R1 / Fold change vs veh, CNEP1R1 / RFU, BIVM-ERCC5 /// ERCC5 / Fold change vs veh, BIVM-ERCC5 /// ERCC5 / RFU, ILF3 / Fold change vs veh, ILF3 / RFU 11762660_at / Fold change /veh 11762660_at / RFU VCAN (11757783_s_at) / Fold change /veh VCAN (11757783_s_at) / RFU DDX43 (11728927_at) / Fold change /veh DDX43 (11728927_at) / RFU KRT8 (11758188_x_at) / Fold change /veh KRT8 (11758188_x_at) / RFU NKD1 (11759106_at) / Fold change /veh NKD1 (11759106_at) / RFU SRD5A1 (11742802_a_at) / Fold change /veh SRD5A1 (11742802_a_at) / RFU TPSAB1 /// TPSB2 (11721975_s_at) / Fold change /veh TPSAB1 /// TPSB2 (11721975_s_at) / RFU GSTM3 (11746129_a_at) / Fold change /veh GSTM3 (11746129_a_at) / RFU IL23R (11737362_x_at) / Fold change /veh IL23R (11737362_x_at) / RFU TMEM51 (11727254_a_at) / Fold change /veh TMEM51 (11727254_a_at) / RFU PIWIL2 (11732686_x_at) / Fold change /veh PIWIL2 (11732686_x_at) / RFU ORM1 (11744905_x_at) / Fold change /veh ORM1 (11744905_x_at) / RFU CCDC152 (11743942_at) / Fold change /veh CCDC152 (11743942_at) / RFU ECM1 (11717891_a_at) / Fold change /veh ECM1 (11717891_a_at) / RFU IL23R (11748794_a_at) / Fold change /veh IL23R (11748794_a_at) / RFU TNFAIP8L3 (11732012_x_at) / Fold change /veh TNFAIP8L3 (11732012_x_at) / RFU MBOAT4 (11741988_at) / Fold change /veh MBOAT4 (11741988_at) / RFU 11764193_at / Fold change /veh 11764193_at / RFU TMEM53 (11763286_at) / Fold change /veh TMEM53 (11763286_at) / RFU MAGEB2 (11727129_at) / Fold change /veh MAGEB2 (11727129_at) / RFU TMEM200A (11744735_a_at) / Fold change /veh TMEM200A (11744735_a_at) / RFU CCDC152 (11751479_a_at) / Fold change /veh CCDC152 (11751479_a_at) / RFU FAM211A (11726209_a_at) / Fold change /veh FAM211A (11726209_a_at) / RFU RGS16 (11746705_a_at) / Fold change /veh RGS16 (11746705_a_at) / RFU VCAN (11755009_s_at) / Fold change /veh VCAN (11755009_s_at) / RFU RHOB (11743442_s_at) / Fold change /veh RHOB (11743442_s_at) / RFU RGS16 (11720943_a_at) / Fold change /veh RGS16 (11720943_a_at) / RFU RGS16 (11720944_at) / Fold change /veh RGS16 (11720944_at) / RFU, VPS4B / Fold change vs veh, VPS4B / RFU, CREB1 / Fold change vs veh, CREB1 / RFU, DNAJC13 / Fold change vs veh, DNAJC13 / RFU, GNAQ / Fold change vs veh, GNAQ / RFU, CDK5R1 / Fold change vs veh, CDK5R1 / RFU, ZRANB3 / Fold change vs veh, ZRANB3 / RFU, CUL4A / Fold change vs veh, CUL4A / RFU, CCNY / Fold change vs veh, CCNY / RFU, UFL1 / Fold change vs veh, UFL1 / RFU, COG3 / Fold change vs veh, COG3 / RFU, DIAPH2 / Fold change vs veh, DIAPH2 / RFU, SKA2 / Fold change vs veh, SKA2 / RFU, AFF3 / Fold change vs veh, AFF3 / RFU, LMF1 / Fold change vs veh, LMF1 / RFU, IPO11 / Fold change vs veh, IPO11 / RFU, DFFB / Fold change vs veh, DFFB / RFU, FOXP1 / Fold change vs veh, FOXP1 / RFU, CARD8 / Fold change vs veh, CARD8 / RFU, STRN3 / Fold change vs veh, STRN3 / RFU, ADK / Fold change vs veh, ADK / RFU, RASSF2 / Fold change vs veh, RASSF2 / RFU, WIPF1 / Fold change vs veh, WIPF1 / RFU, LARP1B / Fold change vs veh, LARP1B / RFU, RASA1 / Fold change vs veh, RASA1 / RFU, RB1 / Fold change vs veh, RB1 / RFU, PPFIA1 / Fold change vs veh, PPFIA1 / RFU, MAT2A / Fold change vs veh, MAT2A / RFU, CCT5 / Fold change vs veh, CCT5 / RFU, WDR92 / Fold change vs veh, WDR92 / RFU, CUX1 / Fold change vs veh, CUX1 / RFU, TTC7A / Fold change vs veh, TTC7A / RFU, TMEM135 / Fold change vs veh, TMEM135 / RFU, DEPTOR / Fold change vs veh, DEPTOR / RFU, CPM / Fold change vs veh, CPM / RFU, DNAJB6 / Fold change vs veh, DNAJB6 / RFU, CACNA2D3 / Fold change vs veh, CACNA2D3 / RFU, DTX4 / Fold change vs veh, DTX4 / RFU, TFCP2 / Fold change vs veh, TFCP2 / RFU, GMCL1 /// GMCL1P1 / Fold change vs veh, GMCL1 /// GMCL1P1 / RFU, AEBP2 / Fold change vs veh, AEBP2 / RFU, SNHG1 /// SNORD22 /// SNORD25 /// SNORD26 /// SNORD27 /// SNORD28 /// SNORD29 /// SNORD31 / Fold change vs veh, SNHG1 /// SNORD22 /// SNORD25 /// SNORD26 /// SNORD27 /// SNORD28 /// SNORD29 /// SNORD31 / Fold change (Aza/veh), C12orf56 (ProbeSet 11735607_a_at) / Fold change (ACY-1035/veh), C12orf56 (ProbeSet 11735607_a_at) / Fold change (Aza/veh), FGFR1OP (ProbeSet 11751329_s_at) / Fold change (ACY-1035/veh), FGFR1OP (ProbeSet 11751329_s_at) / Fold change (Aza/veh), VPS36 (ProbeSet 11739960_a_at) / Fold change (ACY-1035/veh), VPS36 (ProbeSet 11739960_a_at) / RFU SYPL1 (11715823_x_at) / Fold change /veh SYPL1 (11715823_x_at) / RFU IGFBP7 (11715501_s_at) / Fold change /veh IGFBP7 (11715501_s_at) / RFU REEP3 (11722064_at) / Fold change /veh REEP3 (11722064_at) / RFU IGLL1 (11728026_x_at) / Fold change /veh IGLL1 (11728026_x_at): dose or concentration left out as unconfirmed
Conditions: MV-4-11 cells, 48 hours

Which “Fold change /veh SOX15 (11748057_x_at)” value does the source give for `Nc1ncn([C@@H]2O[C@H](CO)[C@@H](O)[C@H]2O)c(=O)n1` [azacitidine] here?
Its value is 1.06.
